Data on seven compounds can be found in patent publication US10231953B2, “Inhibitors of bromodomains” (Zenith Epigenetics Ltd., priority 2014, dated 2019).

“Also recorded” adds a separate entry of the source.

For assay [1], the target named is T1, Brd4 bromodomain 1 (BRD4(1)) (Homo sapiens, UniProt O60885).
T1 construct: made in house; host or cells: E. coli BL21(DE3)
As to the kind of experiment: Inhibition of tetra-acetylated histone H4 binding to BET bromodomain, HTRF/FRET. As to conditions: HTRF, 2 h incubation at room temperature. The procedure:
Proteins are cloned and overexpressed with a N-terminal 6×His tag, then purified by nickel affinity followed by size exclusion chromatography. Briefly, E. coli BL21(DE3) cells are transformed with a recombinant expression vector encoding N-terminally Nickel affinity tagged bromodomains from Brd2, Brd3, Brd4. Cell cultures were incubated at 37° C. with shaking to the appropriate density and induced overnight with IPTG. The supernatant of lysed cells was loaded onto Ni-IDA column for purification. Eluted protein was pooled, concentrated and further purified by size exclusion chromatography. Fractions representing monomeric protein were pooled, concentrated, aliquoted, and frozen at −80° C. for use in subsequent experiments.
Binding of tetra-acetylated histone H4 and BET bromodomains is confirmed by a Homogenous Time Resolved Fluorescence Resonance Energy Transfer (HTRF®) method, N-terminally His-tagged bromodomains (200 nM) and biotinylated tetra-acetylated historic H4 peptide (25-50 nM, Millipore) are incubated in the presence of Europium Cryptate-labeled streptavidin (Cisbio Cat. #610SAKLB) and XL665-labeled monoclonal anti-His antibody (Cisbio Cat. #61HISXLB) in a white 96 well microtiter plate (Greiner). For inhibition assays, serially diluted test compound is added to these reactions in a 0.2% final concentration of DMSO. Duplicate wells are used for each concentration tested. Final buffer concentrations are 30 mM HEPES pH 7.4, 30 mM NaCl, 0.3 mM CHAPS, 20 mM phosphate pH 7.0, 320 mM KF, 0.08% BSA. After a 2 h incubation at room temperature, fluorescence is measured at 665 and 620 nm with a SynergyH4 plate reader (Biotek). The binding inhibitory activity is shown by a decrease in 665 nm relative to 620 nm fluorescence. IC50 values are determined from a dose response curve.

Another assay has as its system MV4-11 cells. As to the kind of experiment: Washout proliferation: effect of covalent binding on durability of proliferation. As to conditions: IC90 concentration for 24 h, then washout; for Percent proliferation relative to DMSO, 24 h: 24 h post washout; for Percent proliferation relative to DMSO, 48 h: 48 h post washout; for Percent proliferation relative to DMSO, 72 h: 72 h post washout. It is filed as cell-based, Human. The procedure:
MV4-11 cells (CRL-9591) were plated at a density of 5×10^4 cells per well in 96 well flat bottom plates and treated with IC90 concentration of covalent vs. non-covalent control compound or DMSO (0.1%) in IMDM media containing 10% FBS and penicillin/streptomycin. Triplicate wells were used for each concentration and a well containing only media is used as a control. Plates were incubated at 37° C., 5% CO2 for 24 h after which the compounds were removed, replaced with media, and proliferation was measured at 24, 48 and 72 hours post washout by adding 20 μL of the Cell Titer Aqueous One Solution (Promega) to each well and incubated at 37° C., 5% CO2 for an additional 3-4 h. The absorbance was read at 490 nm in a spectrophotometer and the percentage of cell titer relative to DMSO-treated cells was calculated after correcting for background by subtracting the blank well's signal. IC50 values are calculated using the GraphPad Prism software.

For the next assay, the system named is BET bromodomains. As to the kind of experiment: Thermal shift assay to monitor covalent binding to BET bromodomains. As to conditions: 100 μM compound, 5 μM protein, 30 minutes or 4 hours at room temperature. The protocol: 5 μM of purified bromodomain protein was incubated with 5× SYPRO® Orange (Molecular Probes) at a final concentration of 20 mM HEPES pH 7.4, 100 mM NaCl in the presence of 100 μM compound or DMSO (0.2%) in a fast 96 well optical plate (Applied Biosystems). Samples were incubated at room temperature for 30 minutes or 4 hours and ramped from 25° C. to 95° C. in a ViiA7 real-time PCR machine (Applied Biosystems). The resulting fluorescence data was analyzed and melting temperatures calculated using Protein Thermal Shift™ Software v1.0 (Life Technologies). A thermal shift indicates covalent binding of the inhibitor to the protein.

The next assay deals with c-myc. The assay is described as follows: Inhibition of cMYC expression in cancer cell lines (mRNA, real-time PCR). It is filed as cell-based. As to conditions: Human AML MV4-11 cells, 3 h. The protocol:
MV4-11 cells (CRL-9591) were plated at a density of 2.5×10^4 cells per well in 96 well U-bottom plates and treated with increasing concentrations of test compound or DMSO) (0.1%) in IMDM media containing 10% FBS and penicillin/streptomycin, and incubated for 3 h at 37° C. Triplicate wells were used for each concentration. Cells were pelleted by centrifugation and harvested using the mRNA Catcher PLUS kit according to manufacturer's instructions. The eluted mRNA isolated was then used in a one-step quantitative real-time PCR reaction, using components of the RNA UltraSense™ One-Step Kit (Life Technologies) together with Applied Biosystems TaqMan® primer-probes for cMYC and Cyclophilin. Real-time PCR plates were run on a ViiA™7 real time PCR machine (Applied Biosystems), data was analyzed, normalizing the Ct values for cMYC to an internal control, prior to determining the fold expression of each sample, relative to the control.

In the next assay the test system is Human AML MV-4-11 cells. As to the kind of experiment: Inhibition of cell proliferation in cancer cell lines. It is filed as cell-based. As to conditions: MV4-11, 72 h. The procedure:
MV4-11 cells (CRL-9591) were plated at a density of 5×10^4 cells per well in 96 well flat bottom plates and treated with increasing concentrations of test compound or DMSO (0.1%) in IMDM media containing 10% FBS and penicillin/streptomycin. Triplicate wells were used for each concentration and a well containing only media was used as a control. Plates were incubated at 37° C., 5% CO2 for 72 h before adding 20 μL of the CellTiter Aqueous One Solution (Promega) to each well and incubated at 37° C., 5% CO2 for an additional 3-4 h. The absorbance was read at 490 nm in a spectrophotometer and the percentage of cell titer relative to DMSO-treated cells was calculated after correcting for background by subtracting the blank well's signal. IC50 values were calculated using the GraphPad Prism software.

The test system of the next assay is hIL-6 mRNA. As to the kind of experiment: Inhibition of hIL-6 mRNA transcription in LPS-stimulated U937 cells. As to conditions: Homo sapiens, U-937; U937 cells differentiated with PMA, 1 h pretreatment, LPS 3 h; read-out: IL-6 activity. The format is cell-based. The protocol:
Human leukemic monocyte lymphoma U937 cells (CRL-1593.2) were plated at a density of 3.2×10^4 cells per well in a 96-well plate in 100 μL RPMI-1640 containing 10% FBS and penicillin/streptomycin, and differentiated into macrophages for 3 days in 60 ng/mL PMA ([…]) at 37° C. in 5% CO2 prior to the addition of compound. The cells were pretreated for 1 h with increasing concentrations of test compound in 0.1% DMSO prior to stimulation with 1 ug/mL lipopolysaccharide from Escherichia coli. Triplicate wells were used for each concentration. The cells were incubated at 37° C., 5% CO2 for 3 h before the cells were harvested. At time of harvest, media was removed and cells were rinsed in 200 μL PBS. Cells were harvested using the mRNA Catcher PLUS kit according to manufacturer's instructions. The eluted mRNA was then used in a one-step quantitative real-time PCR reaction using components of the RNA UltraSense™ One-Step Kit (Life Technologies) together with Applied Biosystems TaqMan® primer-probes for hIL-6 and Cyclophilin. Real-time PCR plates were run on a ViiA™7 real time PCR machine (Applied Biosystems), data was analyzed, normalizing the Ct values for hIL-6 to an internal control, prior to determining the fold expression of each sample, relative to the control.

With `Cc1noc(C)c1-c1ccc(=O)n(Cc2ccc(C3CO3)c(F)c2)c1` (stereo not drawn) [Example 1, 5-(Dimethyl-1,2-oxazol-4-yl)-1-(3-fluoro-4-(oxiran-2-yl)benzyl)pyridin-2(1H)-one], in assay [1], the IC50 is at most 300 nM. For the same compound, in the assay with MV4-11 cells, the “Percent proliferation relative to DMSO, 0 h” value turned out to be 30%; the “Percent proliferation relative to DMSO, 24 h” value is 2%; the “Percent proliferation relative to DMSO, 48 h” value is listed as 10%; the “Percent proliferation relative to DMSO, 72 h” value turned out to be 5%. Further, the “Thermal shift: covalent binding to bromodomain protein” value with BET bromodomains is listed as “bind covalently; also recorded: time-dependent formation of the covalent complex”. In the assay on c-myc, this compound had an IC50 of 3000 to 30000 nM. In the assay on Human AML MV-4-11 cells, this compound yielded an IC50 of 3000 to 30000 nM. Further, the IC50 with hIL-6 mRNA is 3000 to 30000 nM.

For `Cc1noc(C)c1-c1cc(N)c2ncn(Cc3ccc(C4CO4)cc3)c2c1` (stereo not drawn) [Example 4, 6-(Dimethyl-1,2-oxazol-4-yl)-1-{[4-(oxiran-2-yl)phenyl]methyl}-1H-1,3-benzodiazol-4-amine], in assay [1], the IC50 was 300 to 3000 nM. Besides, in the assay on MV4-11 cells, the “Percent proliferation relative to DMSO, 0 h” value was found to be 41%; the “Percent proliferation relative to DMSO, 24 h” value is 0.2%; the “Percent proliferation relative to DMSO, 48 h” value amounted to 15%; the “Percent proliferation relative to DMSO, 72 h” value was 13%. The “Thermal shift: covalent binding to bromodomain protein” value in the assay with BET bromodomains is on record as “bind covalently; also recorded: time-dependent formation of the covalent complex”. In the assay on c-myc, this compound displayed an IC50 of 300 to 3000 nM. The compound also yielded an IC50 in the assay on Human AML MV-4-11 cells of 300 to 3000 nM. Besides, the IC50 in the assay on hIL-6 mRNA was in the range of 300 to 3000 nM.

As for `Cc1noc(C)c1-c1cnc2nc(C)n(Cc3ccc(CCCl)cc3)c2c1` [Example 5, 4-(1-(4-(2-Chloroethyl)benzyl)-2-methyl-1H-imidazo[4,5-b]pyridin-6-yl)-3,5-dimethylisoxazole], the IC50 was at most 300 nM in assay [1] and 300 to 3000 nM with c-myc.

For the compound `Cc1noc(C)c1-c1ccc(=O)n(Cc2ccc(C3CO3)cc2)c1` (stereo not drawn) [Example 2, 5-(dimethyl-1,2-oxazol-4-yl)-1-{[4-(oxiran-2-yl)phenyl]methyl}-1,2-dihydropyridin-2-one], the IC50 in assay [1] was at most 300 nM; with c-myc it was 3000 to 30000 nM; in the assay with Human AML MV-4-11 cells it was 3000 to 30000 nM; with hIL-6 mRNA it was 3000 to 30000 nM.

Regarding `Cc1noc(C)c1-c1cnc2nc(C)n(Cc3ccc(C(=O)CCl)cc3)c2c1` [Example 6, 2-Chloro-1-(4-((6-(3,5-dimethylisoxazol-4-yl)-2-methyl-1H-imidazo[4,5-b]pyridin-1-yl)methyl)phenyl)ethanone], the IC50 in assay [1] was at most 300 nM.

Take `Cc1noc(C)c1-c1cnc2nc(C)n(Cc3ccc(CC4CO4)cc3)c2c1` (stereo not drawn) [Example 7, 3,5-Dimethyl-4-(2-methyl-1-(4-(oxiran-2-ylmethyl)benzyl)-1H-imidazo[4,5-b]pyridin-6-yl)isoxazole]: the IC50 in assay [1] is at most 300 nM.

For the compound `Cc1noc(C)c1-c1cc(N)c(=O)n(Cc2ccc(C3CO3)cc2)c1` (stereo not drawn) [Example 3, 3-amino-5-(3,5-dimethylisoxazol-4-yl)-1-(4-(oxiran-2-yl)benzyl)pyridin-2(1H)-one], the IC50 in assay [1] was at most 300 nM; with c-myc, 3000 to 30000 nM; in the assay on Human AML MV-4-11 cells it was 3000 to 30000 nM; in the assay on hIL-6 mRNA it was 300 to 3000 nM.
